Data reported in ChEMBL document CHEMBL1201862, “PubChem BioAssay data set” (2004).
The source made the active and inactive calls. Rule as the data show it: actives have a measured IC50 and inactives only a lower limit.

Target: Envelope glycoprotein gp160 (Human immunodeficiency virus 1, UniProt Q6QLK5)
Assay: inhibitors of HIV fusion peptide binding, primary screen, biochemical, uHTS, fluorescence dequenching (AID 1986)

Sequence of Envelope glycoprotein gp160 (Q6QLK5 whole entry, the tested form may be a part): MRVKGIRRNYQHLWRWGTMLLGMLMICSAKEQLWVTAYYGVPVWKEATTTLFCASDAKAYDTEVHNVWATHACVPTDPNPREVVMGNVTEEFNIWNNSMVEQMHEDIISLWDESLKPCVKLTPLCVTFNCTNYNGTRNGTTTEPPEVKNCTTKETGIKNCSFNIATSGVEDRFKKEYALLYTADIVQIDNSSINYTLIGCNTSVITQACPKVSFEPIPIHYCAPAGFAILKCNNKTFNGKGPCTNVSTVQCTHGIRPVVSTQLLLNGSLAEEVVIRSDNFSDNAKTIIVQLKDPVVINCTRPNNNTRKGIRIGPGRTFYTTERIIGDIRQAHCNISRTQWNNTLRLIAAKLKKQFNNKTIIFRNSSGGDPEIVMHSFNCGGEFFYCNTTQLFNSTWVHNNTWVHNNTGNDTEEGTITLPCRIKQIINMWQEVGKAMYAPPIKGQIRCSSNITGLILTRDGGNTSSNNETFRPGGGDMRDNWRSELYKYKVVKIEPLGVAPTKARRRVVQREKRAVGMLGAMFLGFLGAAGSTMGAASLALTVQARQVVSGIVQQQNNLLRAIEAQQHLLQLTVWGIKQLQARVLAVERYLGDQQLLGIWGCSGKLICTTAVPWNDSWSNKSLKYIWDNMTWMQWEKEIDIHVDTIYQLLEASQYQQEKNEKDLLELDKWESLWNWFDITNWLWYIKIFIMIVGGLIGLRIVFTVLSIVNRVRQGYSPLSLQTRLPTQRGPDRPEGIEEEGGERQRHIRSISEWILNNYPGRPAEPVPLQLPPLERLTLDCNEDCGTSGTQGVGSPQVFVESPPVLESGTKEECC

**Q.** CCc1nnc(NS(=O)(=O)c2ccc(NC(=S)NC(=O)/C=C/c3ccc(C(C)C)cc3)cc2)s1 was tested. Which IC50 did it give?
**A.** 12.1 µM (active)

**Q.** For O=C(O)c1ccc(N/N=C/c2ccc(-c3cccc(Cl)c3)o2)cc1, which IC50 is on record?
**A.** 22.2 µM (active)

**Q.** For CCOc1cc(/C=N/Nc2cccc(C(=O)O)c2)ccc1OC(=O)c1ccccc1, which IC50 is on record?
**A.** 23.4 µM (active)
